Read-outs that look alike come from different tables or passages of the source.
How the values were obtained:
[1] = tested on: RAF dimers in HCT-116 cells; test: HCT-116 AlphaLISA SureFire pERK1/2 cellular assay (dimer); type: cell-based; settings: Homo sapiens, HCT-116, 1 hr
Outline: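 HCT-116 (KRAS G13D) cells, 30,000/well, pretreated 1 h with 1 μM Encorafenib to induce RAF dimers, washed, then dosed 1 h at 37° C with compound (10-point, top 10 μM, 1/2 log steps) in growth medium. pERK1/2 (T202/Y204) measured by AlphaLISA SureFire; absolute IC50 versus DMSO control.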

[2] = tested on: constitutive ERK phosphorylation in WiDr cells; test: WiDr AlphaLISA SureFire pERK1/2 cellular assay; type: cell-based, human; settings: WiDr cells, 2 hr; for IC50: Homo sapiens, read-out: pERK WiDr (2 hr) Abs pIC50 (converted)
Protocol: The human HCT-116 colorectal carcinoma cell line (ATCC CCL-247) endogenously expresses the KRAS^G13D mutation, which leads to constitutive activation of the MAP kinase pathway and phosphorylation of ERK. […] Assay read outs took place 2 or 24 hours after dosing with compounds. On the first day, HCT-116 cells were harvested, resuspended in growth medium (McCoys5A with Glutamax (Life Technologies 36600021) and 10% heat-inactivated fetal bovine serum (Sigma F9665)), and counted. Cells were plated in 100 μl per well in each well of a 96-well culture dish (Sigma CLS3598) to a final density of 30,000 (2 hr read) or 15,000 (24 hr read) cells per well and incubated over night at 37° C. and 5% CO2. On day 2, the growth medium was exchanged for dosing medium (McCoys5A with Glutamax (Life Technologies 36600021) and 1% heat-inactivated fetal bovine serum (Sigma F9665)) and the cells were dosed with compounds to produce a 10-point dose response, where the top concentration was 1 μM and subsequent concentrations were at 1/3 log dilution intervals. A matched DMSO control was included. The cells were subsequently incubated for either 2 or 24 hours at 37° C. and 5% CO2. After incubation, media was removed and the cells were incubated with lysis buffer containing phosphatase inhibitors for 15 minutes at room temperature. Cell lysates were transferred to a 12 area 96 well white Optiplate™ (Perkin Elmer 6005569) and incubated with anti-mouse IgG acceptor beads, a biotinylated anti-ERK1/2 rabbit antibody recognizing both phosphorylated and non-phosphorylated ERK1/2, a mouse antibody targeted to the Thr202/Tyr204 epitope and recognizing phosphorylated ERK proteins only, and streptavidin-coated donor beads. The biotinylated antibody binds to the streptavidin-coated donor beads and the phopsho-ERK1/2 antibody binds to the acceptor beads. Plates were read on an EnVision reader (Perkin Elmer) and excitation of the beads at 680 nm with a laser induced the release of singlet oxygen molecules from the donor beads that trigger energy transfer to the acceptor beads in close proximity, producing a signal that can be measured at […]. Both antibodies bound to phosphorylated ERK proteins, bringing the donor and acceptor beads into close proximity. All data were analyzed using the Dotmatics or GraphPad Prism software packages. Inhibition of ERK phosphorylation was assessed by determination of the absolute IC50 value, which is defined as the concentration of compound required to decrease the level of phosphorylated ERK proteins by 50% when compared to DMSO control.
WiDr AlphaLISA SureFire pERK1/2 Cellular Assay
The human WiDr colorectal adenocarcinoma cell line (ATCC CCL-218) endogenously expresses the BRAF^V600E mutation, which leads to constitutive activation of the MAP kinase pathway and phosphorylation of ERK. […] The main procedure is essentially the same as for HCT-116 cells (above), with the following adjustments to the growth medium (Eagle's Minimum Essential Medium (Sigma M2279) with 1× Glutamax (Life Technologies 35050038), 1× Sodium-Pyruvate (Sigma S8636), and 10% heat-inactivated fetal bovine serum (Sigma F9665)), the dosing medium (Eagle's Minimum Essential Medium (Sigma M2279) with 1× Glutamax (Life Technologies 35050038), 1× Sodium-Pyruvate (Sigma S8636), and 1% heat-inactivated fetal bovine serum (Sigma F9665)), and the seeding densities (2 hr: 50,000 cells per well; 24 hr: 35,000 cells per well). Moreover, the compounds were dosed in 1/2 log dilution intervals with the top concentration of 10 μM.

[3] = Microsomal stability assay, human liver microsomes (HLM); type: in vitro ADME; settings: 0.5 mg/mL protein, 1 μM substrate
Outline: (§1)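 Half-life and CLint come from the ln(% remaining)–time slope, with remaining compound quantified by LC-MS/MS after ice-cold solvent quench of timed samples. Incubations used 1 μM test compound and 0.5 mg·mL^−1 human or mouse liver microsomal protein at 37° C.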

[4] = Microsomal stability assay, mouse liver microsomes (MLM); type: in vitro ADME; settings: 0.5 mg/mL protein, 1 μM substrate
Outline: as §1

[5] = Plasma protein binding assay, human plasma (hPPB); type: in vitro ADME; settings: 5 μM
Outline: (§2)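 Equilibrium dialysis of 5 μM compound in previously frozen human or mouse plasma against phosphate buffer, 4 h at 37 °C. Both chambers quantified by LC-MS/MS; % free = (1−((PC−PF)/PC))×100.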

[6] = Plasma protein binding assay, mouse plasma (mPPB); type: in vitro ADME; settings: 5 μM
Outline: as §2

[7] = tested on: WiDr cells; test: WiDr CellTiter-Glo 3D cell proliferation assay; type: cell-based; settings: Homo sapiens; WiDr cells, 3D proliferation; read-out: 3D WiDr pGI50 (converted)
[8] = HCT116 cells, dimer, read-out: pERK HCT116 dimer (1 hr) plC50 (converted)
[9] = equilibrium dialysis 4 hours at 37° C.
[10] = equilibrium dialysis 4 hours 37° C.

Row | SMILES | IC50 [1, 8] | IC50 ([2]; Abs) | microsomal CLint at 1 μM ([3]; 37° C.) | MLM (CLint) ([4]; 37° C.) | hPPB (% free) [5, 9] | mPPB (% free) [6, 9] | GI50 [7] | IC50 ([1]; HCT116 cells pre-dosed with 1 μM Encorafenib, read-out: pERK HCT116 dimer (1 hr) pIC50 (converted)) | IC50 ([2]; absolute IC50) | pERK WiDr (2 hr) Abs pIC50 ([2]; Abs) | microsomal CLint at 1 μM [3] | microsomal CLint at 1 μM [4] | hPPB (% free) [5, 10] | mPPB (% free) [6, 10] | microsomal CLint at 1 μM ([4]; 37° C.) | HLM (CLint) ([3]; 37° C.)
1 | O=C(Nc1cc(Oc2ccc3c(c2)CC(c2nc(-c4ccccc4)c[nH]2)CO3)ccn1)C1CC1 (racemic) [Compound 136] | 89.1 nM | 66.1 nM | 58.1 µL/min/mg | 277 µL/min/mg | 0.2 % free | 0.2 % free | 170 nM |  |  |  |  |  |  |  |  | 
2 | O=C1CCc2c(Oc3ccc4c(c3)CC(c3nc(-c5ccnc(C(F)(F)F)c5)c[nH]3)CO4)ccnc2N1 (stereo not drawn) [Compound 8, 5-[3-[4-[2-(trifluoromethyl)-4-pyridyl]-1H-imidazol-2-yl]chroman-6-yl]oxy-3,4-dihydro-1H-1,8-naphthyridin-2-one] | 269 nM |  |  |  | 1.0 % free | 1.1 % free | 191 nM | 269 nM | 178 nM | 6.75 | 36 µL/min/mg | 13.9 µL/min/mg | 1.0 % free | 1.1 % free |  | 
3 | O=C1CCc2c(Oc3ccc4c(c3)CC(c3nc(-c5ccnc(C(F)F)c5)c[nH]3)CO4)ccnc2N1 (stereo not drawn) [Compound 101, 5-[3-[4-[2-(difluoromethyl)-4-pyridyl]-1H-imidazol-2-yl]chroman-6-yl]oxy-3,4-dihydro-1H-1,8-naphthyridin-2-one] | 63.1 nM | 182 nM | 29.6 µL/min/mg |  | 1.6 % free | 1.1 % free | 309 nM |  |  |  |  |  |  |  | 15.2 µL/min/mg | 
4 | O=C1CCc2c(Oc3ccc4c(c3)CC(c3nc(-c5cncc(C(F)(F)F)c5)c[nH]3)CO4)ccnc2N1 (stereo not drawn) [Compound 103, 5-[3-[4-[5-(trifluoromethyl)-3-pyridyl]-1H-imidazol-2-yl]chroman-6-yl]oxy-3,4-dihydro-1H-1,8-naphthyridin-2-one] | 107 nM | 269 nM | 11.6 µL/min/mg |  | 0.6 % free | 0.6 % free | 537 nM |  |  |  |  |  |  |  | 4.4 µL/min/mg | 
5 | COc1cc(-c2c[nH]c(C3COc4ccc(Oc5ccnc6c5CCC(=O)N6)cc4C3)n2)ccn1 (stereo not drawn) [Compound 104] | 347 nM |  |  | 23 µL/min/mg | 1.9 % free | 1.5 % free | 1150 nM |  |  | 5.96 |  |  |  |  |  | 27.8 µL/min/mg
6 | O=C1CCc2c(Oc3ccc4c(c3)CC(c3nc(-c5cncc(C(F)F)c5)c[nH]3)CO4)ccnc2N1 (stereo not drawn) [Compound 105, 5-[3-[4-[5-(difluoromethyl)-3-pyridyl]-1H-imidazol-2-yl]chroman-6-yl]oxy-3,4-dihydro-1H-1,8-naphthyridin-2-one] | 64.6 nM | 269 nM | 24.8 µL/min/mg |  | 1.0 % free | 0.86 % free | 603 nM |  |  |  |  |  |  |  | 2.1 µL/min/mg | 
7 | Cc1cc(-c2c[nH]c(C3COc4ccc(Oc5ccnc6c5CCC(=O)N6)cc4C3)n2)n(C)n1 (stereo not drawn) [Compound 106, 5-[3-[4-(2,5-dimethylpyrazol-3-yl)-1H-imidazol-2-yl]chroman-6-yl]oxy-3,4-dihydro-1H-1,8-naphthyridin-2-one] | 123 nM | 589 nM | 10.5 µL/min/mg |  | 2.4 % free | 3.0 % free | 1550 nM |  |  |  |  |  |  |  | 17.1 µL/min/mg | 
8 | Cn1nc(C(F)(F)F)cc1-c1c[nH]c(C2COc3ccc(Oc4ccnc5c4CCC(=O)N5)cc3C2)n1 (stereo not drawn) [Compound 107, 5-[3-[4-[2-methyl-5-(trifluoromethyl)pyrazol-3-yl]-1H-imidazol-2-yl]chroman-6-yl]oxy-3,4-dihydro-1H-1,8-naphthyridin-2-one] | 57.5 nM | 209 nM | 30.3 µL/min/mg |  | 0.7 % free | 0.3 % free | 776 nM |  |  |  |  |  |  |  | 12.5 µL/min/mg | 
9 | Cc1cc(-c2c[nH]c(C3COc4ccc(Oc5ccnc6c5CCC(=O)N6)cc4C3)n2)n(C(C)C)n1 (stereo not drawn) [Compound 112, 5-[3-[4-(2-isopropyl-5-methyl-pyrazol-3-yl)-1H-imidazol-2-yl]chroman-6-yl]oxy-3,4-dihydro-1H-1,8-naphthyridin-2-one] | 257 nM | 1000 nM | 81.5 µL/min/mg |  | 1.4 % free | 2.0 % free |  |  |  |  |  |  |  |  | 55.5 µL/min/mg | 
10 | CCc1cc(-c2c[nH]c(C3COc4ccc(Oc5ccnc6c5CCC(=O)N6)cc4C3)n2)n(C2CC2)n1 (stereo not drawn) [Compound 113, 5-[3-[4-(2-cyclopropyl-5-ethyl-pyrazol-3-yl)-1H-imidazol-2-yl]chroman-6-yl]oxy-3,4-dihydro-1H-1,8-naphthyridin-2-one] | 513 nM | 1480 nM | 82.1 µL/min/mg |  | 0.6 % free | 1.6 % free |  |  |  |  |  |  |  |  | 38.2 µL/min/mg | 
11 | Cc1cc(-c2c[nH]c(C3COc4ccc(Oc5ccnc6c5CCC(=O)N6)cc4C3)n2)n(C2CC2)n1 (stereo not drawn) [Compound 114, 5-[3-[4-(2-cyclopropyl-5-methyl-pyrazol-3-yl)-1H-imidazol-2-yl]chroman-6-yl]oxy-3,4-dihydro-1H-1,8-naphthyridin-2-one] | 363 nM | 1350 nM | 38.5 µL/min/mg |  | 1.2 % free | 2.0 % free |  |  |  |  |  |  |  |  | 12.6 µL/min/mg | 
12 | CC(C)(C)CCc1c[nH]c(C2COc3ccc(Oc4ccnc5c4CCC(=O)N5)cc3C2)n1 (stereo not drawn) [Compound 115, 5-[3-[4-(3,3-dimethylbutyl)-1H-imidazol-2-yl]chroman-6-yl]oxy-3,4-dihydro-1H-1,8-naphthyridin-2-one] | 105 nM | 8.13 nM | 277 µL/min/mg |  | 0.3 % free | 0.3 % free | 38 nM |  |  |  |  |  |  |  |  | 
13 | CC(C)CCc1c[nH]c(C2COc3ccc(Oc4ccnc5c4CCC(=O)N5)cc3C2)n1 (stereo not drawn) [Compound 116] | 87.1 nM | 39.8 nM | 277 µL/min/mg |  | 0.13 % free | 0.23 % free | 126 nM |  |  |  |  |  |  |  |  | 
14 | Cn1nc(C2CC2)cc1-c1c[nH]c(C2COc3ccc(Oc4ccnc5c4CCC(=O)N5)cc3C2)n1 (stereo not drawn) [Compound 125, 5-[3-[4-(5-cyclopropyl-2-methyl-pyrazol-3-yl)-1H-imidazol-2-yl]chroman-6-yl]oxy-3,4-dihydro-1H-1,8-naphthyridin-2-one] | 138 nM | 977 nM |  |  |  |  | 15100 nM |  |  |  |  |  |  |  |  | 
